Reference: ChEMBL document CHEMBL1201862, “PubChem BioAssay data set” (2004)
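Dose response: 5 concentrations. Exposure: 48 h. Format: 96-well plates. Endpoint: linear interpolation; highest concentration if not reached. GI50 marks 50% less growth.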 Active and inactive are the calls of the source. No stated cut-off is given here; in the data, active = GI50 up to about 1.1 µM and inactive = higher.

Key:
Test in all cases: NCI anticancer screen, dose series, 48 h
HCT-116 = test system: HCT-116
OVCAR-4 = test system: OVCAR-4
SF-268 = test system: SF-268
DMS-114 = test system: DMS-114
SR = test system: SR
NCI-H522 = test system: NCI-H522
DLD-1 = test system: DLD-1
KM12 = test system: KM12
HOP-62 = test system: HOP-62
COLO 205 = test system: COLO 205
IGROV-1 = test system: IGROV-1
LOX IMVI = test system: LOX IMVI
HOP-92 = test system: HOP-92
OVCAR-5 = test system: OVCAR-5
SK-MEL-5 = test system: SK-MEL-5
U-251 = test system: U-251
NCI-H23 = test system: NCI-H23
SK-OV-3 = test system: SK-OV-3
DMS-273 = test system: DMS-273
K562 = test system: K562
HT-29 = test system: HT-29
SN12C = test system: SN12C
SNB-19 = test system: SNB-19
UACC-62 = test system: UACC-62
SK-MEL-28 = test system: SK-MEL-28
HCT-15 = test system: HCT-15
SNB-78 = test system: SNB-78
RPMI-8226 = test system: RPMI-8226
XF498 = test system: XF498
HL-60 = test system: HL-60
SW-620 = test system: SW-620
SF-295 = test system: SF-295
CCRF-CEM = test system: CCRF-CEM
SNB-75 = test system: SNB-75
ACHN = test system: ACHN
UO-31 = test system: UO-31
KM-20L2 = test system: KM-20L2
Malme-3M = test system: Malme-3M
UACC-257 = test system: UACC-257
NCI-H460 = test system: NCI-H460
786-0 = test system: 786-0
MOLT-4 = test system: MOLT-4
OVCAR-8 = test system: OVCAR-8
OVCAR-3 = test system: OVCAR-3
TK-10 = test system: TK-10
LXFL 529 = test system: LXFL 529
RXF 393 = test system: RXF 393
NCI-H226 = test system: NCI-H226
M14 = test system: M14
SK-MEL-2 = test system: SK-MEL-2
A549 = test system: A549
HCC 2998 = test system: HCC 2998
M19-MEL = test system: M19-MEL
EKVX = test system: EKVX
SF-539 = test system: SF-539
CAKI-1 = test system: CAKI-1

Cc1ccc(C(O)/C(=N/N)c2nc3ccc([N+](=O)[O-])cc3nc2O)cc1 (stereo not given)
GI50 (HCT-116): > 100 µM (inactive) | GI50 (OVCAR-4): > 100 µM (inactive) | GI50 (SF-268): 74.6 µM (inactive) | GI50 (DMS-114): 33.9 µM (inactive) | GI50 (SR): 58.7 µM (inactive) | GI50 (NCI-H522): 17.8 µM (inactive) | GI50 (DLD-1): > 100 µM (inactive) | GI50 (KM12): 51.8 µM (inactive) | GI50 (HOP-62): > 100 µM (inactive) | GI50 (COLO 205): > 100 µM (inactive) | GI50 (IGROV-1): > 100 µM (inactive) | GI50 (LOX IMVI): > 100 µM (inactive) | GI50 (HOP-92): > 100 µM (inactive) | GI50 (OVCAR-5): > 100 µM (inactive) | GI50 (SK-MEL-5): 43.2 µM (inactive) | GI50 (U-251): > 100 µM (inactive) | GI50 (NCI-H23): > 100 µM (inactive) | GI50 (SK-OV-3): > 100 µM (inactive) | GI50 (DMS-273): 83.4 µM (inactive) | GI50 (K562): 22.6 µM (inactive) | GI50 (HT-29): > 100 µM (inactive) | GI50 (SN12C): > 100 µM (inactive) | GI50 (SNB-19): > 100 µM (inactive) | GI50 (UACC-62): 46.8 µM (inactive) | GI50 (SK-MEL-28): > 100 µM (inactive) | GI50 (HCT-15): 28 µM | GI50 (SNB-78): > 100 µM (inactive) | GI50 (RPMI-8226): 40.6 µM (inactive) | GI50 (XF498): 95.5 µM (inactive) | GI50 (HL-60): 27 µM (inactive) | GI50 (SW-620): > 100 µM (inactive) | GI50 (SF-295): > 100 µM (inactive) | GI50 (CCRF-CEM): 13.5 µM (inactive) | GI50 (SNB-75): 43.7 µM (inactive) | GI50 (ACHN): 47.3 µM (inactive) | GI50 (UO-31): 45.4 µM (inactive) | GI50 (KM-20L2): 57.5 µM (inactive) | GI50 (Malme-3M): > 100 µM (inactive) | GI50 (UACC-257): > 100 µM (inactive) | GI50 (NCI-H460): > 100 µM (inactive) | GI50 (786-0): > 100 µM (inactive) | GI50 (MOLT-4): > 100 µM (inactive) | GI50 (OVCAR-8): > 100 µM (inactive) | GI50 (OVCAR-3): > 100 µM (inactive) | GI50 (TK-10): > 100 µM (inactive) | GI50 (LXFL 529): 67 µM (inactive) | GI50 (RXF 393): > 100 µM (inactive) | GI50 (NCI-H226): > 100 µM (inactive) | GI50 (M14): > 100 µM (inactive) | GI50 (SK-MEL-2): > 100 µM (inactive) | GI50 (A549): > 100 µM (inactive) | GI50 (HCC 2998): 4.66 µM (inactive) | GI50 (M19-MEL): > 100 µM (inactive)

COC(=O)N/N=C(\C)CC(=O)Nc1cccc([N+](=O)[O-])c1
GI50 (HCT-116): > 100 µM (inactive) | GI50 (SF-268): > 100 µM (inactive) | GI50 (EKVX): > 100 µM (inactive) | GI50 (DMS-114): > 100 µM (inactive) | GI50 (NCI-H522): > 100 µM (inactive) | GI50 (DLD-1): > 100 µM (inactive) | GI50 (KM12): > 100 µM (inactive) | GI50 (HOP-62): > 100 µM (inactive) | GI50 (COLO 205): > 100 µM (inactive) | GI50 (IGROV-1): > 100 µM (inactive) | GI50 (LOX IMVI): > 100 µM (inactive) | GI50 (HOP-92): > 100 µM (inactive) | GI50 (OVCAR-5): > 100 µM (inactive) | GI50 (SK-MEL-5): > 100 µM (inactive) | GI50 (U-251): > 100 µM (inactive) | GI50 (NCI-H23): > 100 µM (inactive) | GI50 (SK-OV-3): > 100 µM (inactive) | GI50 (DMS-273): > 100 µM (inactive) | GI50 (K562): > 100 µM (inactive) | GI50 (HT-29): > 100 µM (inactive) | GI50 (UACC-62): > 100 µM (inactive) | GI50 (SK-MEL-28): > 100 µM (inactive) | GI50 (SNB-78): > 100 µM (inactive) | GI50 (RPMI-8226): > 100 µM (inactive) | GI50 (XF498): > 100 µM (inactive) | GI50 (HL-60): > 100 µM (inactive) | GI50 (SW-620): > 100 µM (inactive) | GI50 (SF-295): > 100 µM (inactive) | GI50 (CCRF-CEM): > 100 µM (inactive) | GI50 (SNB-75): > 100 µM (inactive) | GI50 (UO-31): > 100 µM (inactive) | GI50 (KM-20L2): > 100 µM (inactive) | GI50 (Malme-3M): > 100 µM (inactive) | GI50 (UACC-257): > 100 µM (inactive) | GI50 (NCI-H460): > 100 µM (inactive) | GI50 (786-0): > 100 µM (inactive) | GI50 (MOLT-4): > 100 µM (inactive) | GI50 (OVCAR-8): > 100 µM (inactive) | GI50 (OVCAR-3): > 100 µM (inactive) | GI50 (TK-10): > 100 µM (inactive) | GI50 (SF-539): > 100 µM (inactive) | GI50 (LXFL 529): > 100 µM (inactive) | GI50 (RXF 393): > 100 µM (inactive) | GI50 (NCI-H226): > 100 µM (inactive) | GI50 (M14): > 100 µM (inactive) | GI50 (SK-MEL-2): > 100 µM (inactive) | GI50 (A549): > 100 µM (inactive) | GI50 (HCC 2998): > 100 µM (inactive) | GI50 (M19-MEL): > 100 µM (inactive)

COc1cc(N)c2[nH]c3c(C)ccc(C)c3c2c1
GI50 (HCT-116): > 100 µM (inactive) | GI50 (OVCAR-4): > 100 µM (inactive) | GI50 (SF-268): > 100 µM (inactive) | GI50 (EKVX): > 100 µM (inactive) | GI50 (DMS-114): > 100 µM (inactive) | GI50 (SR): > 100 µM (inactive) | GI50 (NCI-H522): > 100 µM (inactive) | GI50 (DLD-1): > 100 µM (inactive) | GI50 (KM12): > 100 µM (inactive) | GI50 (HOP-62): > 100 µM (inactive) | GI50 (COLO 205): > 100 µM (inactive) | GI50 (LOX IMVI): > 100 µM (inactive) | GI50 (OVCAR-5): > 100 µM (inactive) | GI50 (SK-MEL-5): > 100 µM (inactive) | GI50 (NCI-H23): > 10 µM (inactive) | GI50 (DMS-273): > 100 µM (inactive) | GI50 (K562): > 100 µM (inactive) | GI50 (HT-29): > 100 µM (inactive) | GI50 (SN12C): > 100 µM (inactive) | GI50 (SNB-19): > 100 µM (inactive) | GI50 (SK-MEL-28): > 100 µM (inactive) | GI50 (HCT-15): > 100 µM | GI50 (SNB-78): > 100 µM (inactive) | GI50 (RPMI-8226): > 100 µM (inactive) | GI50 (XF498): > 100 µM (inactive) | GI50 (HL-60): > 100 µM (inactive) | GI50 (SW-620): > 100 µM (inactive) | GI50 (SF-295): > 100 µM (inactive) | GI50 (CCRF-CEM): > 100 µM (inactive) | GI50 (SNB-75): > 100 µM (inactive) | GI50 (ACHN): > 100 µM (inactive) | GI50 (UO-31): > 100 µM (inactive) | GI50 (Malme-3M): > 100 µM (inactive) | GI50 (UACC-257): > 100 µM (inactive) | GI50 (NCI-H460): > 100 µM (inactive) | GI50 (786-0): > 100 µM (inactive) | GI50 (MOLT-4): > 100 µM (inactive) | GI50 (OVCAR-8): > 100 µM (inactive) | GI50 (OVCAR-3): > 100 µM (inactive) | GI50 (TK-10): > 100 µM (inactive) | GI50 (SF-539): > 100 µM (inactive) | GI50 (CAKI-1): > 100 µM (inactive) | GI50 (NCI-H226): > 100 µM (inactive) | GI50 (M14): > 100 µM (inactive) | GI50 (SK-MEL-2): > 100 µM (inactive) | GI50 (A549): > 100 µM (inactive) | GI50 (HCC 2998): > 100 µM (inactive) | GI50 (M19-MEL): > 100 µM (inactive)
